Square brackets hold non-standard residues; d marks the D form. Peptide text beside a SMILES is read from it. * marks the point of attachment. dPhe(4-NHCONH2) = NC(=O)Nc1ccc(C[C@@H](N)C(=O)O)cc1; Dihydroorotyl(S) = O=C1C[C@@H](C(=O)*)NC(=O)N1; dPhe(4-Cl) = N[C@H](Cc1ccc(Cl)cc1)C(=O)O; Phe(4-NH2) = Nc1ccc(C[C@H](N)C(=O)O)cc1; d2Nal = N[C@H](Cc1ccc2ccccc2c1)C(=O)O; Lys(iPr) = CC(C)NCCCC[C@H](N)C(=O)O; d3Pal = N[C@H](Cc1cccnc1)C(=O)O
System: prostate-specific antigen (PSA)
Assay: CS21: PSA response and PSA failure
Format: in vivo, human
Conditions: for Day 14 percentage change in PSA, median / Day 28 percentage change in PSA, median: Day 0 dose degarelix 240@40; for median percentage change (reduction) in PSA from baseline: leuprolide 7.5 mg with anti-androgen flare protection; for median percentage reduction in PSA from baseline: leuprolide 7.5 mg without anti-androgen
Method: The secondary efficacy endpoints were: the proportion of patients with testosterone surge during the first 2 weeks of treatment; the proportion of patients with testosterone level ≤0.5 ng/mL at day 3; the percentage change in PSA from baseline to day 28; the probability of testosterone ≤0.5 ng/mL from day 56 through day 364; the levels of serum testosterone, LH, FSH and PSA over time through the study; the time to PSA failure, defined as two consecutive increases of 50%, and at least 5 ng/mL as compared to nadir; degarelix concentration over the first month and trough levels at day 308 and 336; the frequency and size of testosterone increases at day 255 and/or 259 compared to the testosterone level at day 252; the quality of life on days 0, 28, 84, 168 and end of study visit; the frequency and intensity of hot flushes experienced (scored daily from study start until end of study visit. In addition, two further secondary endpoints were added: the probability of sufficient testosterone response from day 28 through day 364 (a patient was considered to have insufficient testosterone response if they had one testosterone value >1.0 ng/mL or two consecutive testosterone values >0.5 ng/mL at day 28 onwards); and the percentage change in PSA from baseline to Day 14.
All secondary efficacy endpoints were analyzed for both the ITT and PP analysis sets, unless otherwise stated. The proportion of patients with testosterone surge during the first 2 weeks of treatment was analyzed using Fisher's exact test. Fisher's exact test was also used to analyze the proportion of patients with testosterone level ≤0.5 ng/mL at day 3. The percentage change in PSA from baseline to day 28 endpoint was analyzed by a Wilcoxon test.
The secondary endpoints; probability of testosterone ≤0.5 ng/mL from Day 56 through Day 364, time to PSA failure and probability of sufficient testosterone response from Day 28 through Day 364 were analyzed by the Kaplan-Meier method.

[1] = age <65, degarelix 240@40/80@20, LUPRON DEPOT 7.5 mg
[2] = age >=75, degarelix 240@40/80@20, LUPRON DEPOT 7.5 mg
[3] = degarelix 240/80 mg, leuprolide 7.5 mg

## CCNC(=O)[C@@H]1CCCN1C(=O)[C@H](CCCNC(=N)N)NC(=O)[C@H](CC(C)C)NC(=O)[C@@H](CC(C)C)NC(=O)[C@H](Cc1ccc(O)cc1)NC(=O)[C@H](CO)NC(=O)[C@H](Cc1c[nH]c2ccccc12)NC(=O)[C@H](Cc1c[nH]cn1)NC(=O)[C@@H]1CCC(=O)N1 [Leuprolide, leuprolide, reference compound]
PCA = Localized
  Day 14 percentage change in PSA, median: −13.2%
  Day 28 percentage change in PSA, median: −55.7%
PCA = Metastatic
  Day 14 percentage change in PSA, median: −25.3%
  Day 28 percentage change in PSA, median: −79.7%
PCA Locally advanced
  Day 14 percentage change in PSA, median: −21.3%
  Day 28 percentage change in PSA, median: −73.2%
[1]
  Probability of no PSA failure: 68.2%
[2]
  Probability of no PSA failure: 86.8%
Day 14
  median percentage change (reduction) in PSA from baseline: 61.7%
  median percentage reduction in PSA from baseline: 15.3%
Day 28
  median percentage change (reduction) in PSA from baseline: 89.1%
  median percentage reduction in PSA from baseline: 61.7%
[3]
  probability of completing the study without experiencing PSA failure: ~85.8%

## CC(=O)N[C@H](Cc1ccc2ccccc2c1)C(=O)N[C@H](Cc1ccc(Cl)cc1)C(=O)N[C@H](Cc1cccnc1)C(=O)N[C@@H](CO)C(=O)N[C@@H](Cc1ccc(NC(=O)[C@@H]2CC(=O)NC(=O)N2)cc1)C(=O)N[C@H](Cc1ccc(NC(N)=O)cc1)C(=O)N[C@@H](CC(C)C)C(=O)N[C@@H](CCCCNC(C)C)C(=O)N1CCC[C@H]1C(=O)N[C@H](C)C(N)=O [Degarelix, D-Alaninamide, N-acetyl-3-(2-naphthalenyl)-D-alanyl-4-chloro-D-phenylalanyl-3-(3-pyridinyl)-D-alanyl-L-seryl-4-[[[(4S)-hexahydro-2,6-dioxo-4-pyrimidinyl]carbonyl]amino]-L phenylalanyl-4-[(aminocarbonyl)amino]-D-phenylalanyl-L leucyl-N6-(1-methylethyl)-L-lysyl-L-prolyl] (Ac-[d2Nal][dPhe(4-Cl)][d3Pal]S[Phe(4-NH2)](Dihydroorotyl(S))[dPhe(4-NHCONH2)]L[Lys(iPr)]P[dA]-NH2)
PCA = Localized
  Day 14 percentage change in PSA, median: −50.6%
  Day 28 percentage change in PSA, median: −75.0%
PCA = Metastatic
  Day 14 percentage change in PSA, median: −77.9%
  Day 28 percentage change in PSA, median: −89.9%
PCA Locally advanced
  Day 14 percentage change in PSA, median: −66.6%
  Day 28 percentage change in PSA, median: −84.1%
Age <65, degarelix 240/160@40
  Probability of no PSA failure: 71.6%
[1]
  Probability of no PSA failure: 85.2%
Age >=75, degarelix 240/160@40
  Probability of no PSA failure: 94.5%
[2]
  Probability of no PSA failure: 96.6%
Day 14
  probability of a PSA observation from the pooled degarelix groups being less than one from the leuprolide 7.5 mg group: 0.82
Day 28
  probability of a PSA observation from the pooled degarelix groups being less than one from the leuprolide 7.5 mg group: 0.70
[3]
  probability of completing the study without experiencing PSA failure: 91.2%
Degarelix 240/160 mg
  probability of completing the study without experiencing PSA failure: ~85.8%

— patent US11766468B2, “Method of treating prostate cancer with GnRH antagonist” (priority 2012, dated 2023)
